The values below come from paper PMC5834611, “A mechanism for CO regulation of ion channels” (Nature Communications, 2018).

In assay [1] the target is T1, SUR2A (Rattus norvegicus, UniProt Q63563).
T1 construct: gene Abcc9; residues S615-L933 (SUR2A^615–933; CXXHX16H motif and NBD1)
T1 sequence (Q63563 615-933): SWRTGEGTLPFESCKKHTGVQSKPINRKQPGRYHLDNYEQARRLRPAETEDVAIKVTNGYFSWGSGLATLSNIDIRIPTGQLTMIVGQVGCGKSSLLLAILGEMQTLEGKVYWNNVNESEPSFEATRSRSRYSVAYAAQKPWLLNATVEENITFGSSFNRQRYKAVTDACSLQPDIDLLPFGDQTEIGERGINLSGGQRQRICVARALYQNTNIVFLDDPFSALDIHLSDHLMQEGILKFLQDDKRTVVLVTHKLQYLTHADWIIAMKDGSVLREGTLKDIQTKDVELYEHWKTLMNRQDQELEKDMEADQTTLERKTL
Description: spectrophotometric titration; stopped-flow, resonance Raman, ultrafast spectroscopy. The assay is classed as binding.

In assay [2] the target is T1, SUR2A. The experiment in a line: UV-vis absorption titration of purified protein; koff by heme transfer to apo-myoglobin. The assay is classed as binding.

A word on the Kd: it is the concentration at which binding is half-saturated. A low value points to tighter binding. The molecule `[C-]#[O+]` [carbon monoxide] gave a Kd at SUR2A [1] of 0.6 ± 0.3 µM. Molecule `C=CC1=C(C)C2=Cc3c(C=C)c(C)c4[n]3[Fe]([Cl])[n]3c(c(C)c(CCC(=O)O)c3=CC3=NC(=C4)C(C)=C3CCC(=O)O)=CC1=N2` [hemin] displayed a Kd on SUR2A [2] of 8 ± 0.6 µM.
